According to patent US4118561A, “7-(Substituted)-7H-pyrrolo[3,2-f]quinazoline-1,3-diamines” (priority 1977, dated 1978):
Converted amounts (≈) assume the structure as drawn.

What was measured:
P. vulgaris 6896 = experiment: In vitro antibacterial activity (MIC), P. vulgaris 6896; conditions: Proteus vulgaris, 6896, 18 h
N. catarrhalis 8193 = experiment: In vitro antibacterial activity (MIC), N. catarrhalis 8193; conditions: 18 h
S. aureus Smith = experiment: In vitro antibacterial activity (MIC), S. aureus Smith; conditions: Staphylococcus aureus, 18 h
E. coli 9637 = experiment: In vitro antibacterial activity (MIC), E. coli 9637; conditions: Escherichia coli, 9637, 18 h
S. paratyphi 11737 = experiment: In vitro antibacterial activity (MIC), S. paratyphi 11737; type: cell-based; conditions: Salmonella enterica, 18 h
K. pneumoniae 10031 = experiment: In vitro antibacterial activity (MIC), K. pneumoniae 10031; conditions: Klebsiella pneumoniae, 10031, 18 h
S. aureus 53-180 = experiment: In vitro antibacterial activity (MIC), S. aureus 53-180; conditions: Staphylococcus aureus, 53180, 18 h

Compound | MIC (P. vulgaris 6896) [µg/mL] | MIC (N. catarrhalis 8193) [µg/mL] | MIC (S. aureus Smith) [µg/mL] | MIC (E. coli 9637) [µg/mL] | MIC (S. paratyphi 11737) [µg/mL] | MIC (K. pneumoniae 10031) [µg/mL] | MIC (S. aureus 53-180) [µg/mL]
Cc1cc(-n2ccc3c4c(N)nc(N)nc4ccc32)c2ccccc2n1 [Example 91] | 3.9 (≈ 11.5 µM) | 0.031 (≈ 0.0911 µM) | 0.061 (≈ 0.179 µM) | 1.95 (≈ 5.73 µM) | 1.95 (≈ 5.73 µM) | 0.061 (≈ 0.179 µM) | 0.061 (≈ 0.179 µM)
CCOC(=O)c1ccc(-n2ccc3c4c(N)nc(N)nc4ccc32)cc1 [Example 75] | > 250 | 0.122 (≈ 0.351 µM) | 125 (≈ 360 µM) | > 250 | > 250 | 250 (≈ 720 µM) | 7.81 (≈ 22.5 µM)
Cc1nc2ccccc2nc1-n1ccc2c3c(N)nc(N)nc3ccc21 [Example 92] | > 250 | 0.122 (≈ 0.357 µM) | 1.95 (≈ 5.71 µM) | 7.81 (≈ 22.9 µM) | > 250 | 0.976 (≈ 2.86 µM) | 0.488 (≈ 1.43 µM)
Nc1nc(N)c2c(ccc3c2ccn3-c2ccnc3cc(C(F)(F)F)ccc23)n1 [Example 90] | 250 (≈ 634 µM) | 0.031 (≈ 0.0786 µM) | 0.122 (≈ 0.309 µM) | 0.244 (≈ 0.619 µM) | 31.3 (≈ 79.4 µM) | 0.244 (≈ 0.619 µM) | 0.031 (≈ 0.0786 µM)
Nc1ccc(-n2ccc3c4c(N)nc(N)nc4ccc32)cc1 [Example 96, 7-(4-Aminophenyl)-7H-pyrrolo[3,2-f]-quinazaline-1,3-diamine] | 0.976 (≈ 3.36 µM) | 0.0152 (≈ 0.0524 µM) | 0.488 (≈ 1.68 µM) | 0.244 (≈ 0.84 µM) | 0.488 (≈ 1.68 µM) | 0.031 (≈ 0.107 µM) | 0.244 (≈ 0.84 µM)
Nc1nc(N)c2c(ccc3c2ccn3CC2CCCO2)n1 (centres unmarked) [Example 67, 7-[(Tetrahydro-2-furanyl)methyl]-7H-pyrrolo-[3,2-f]quinazoline-1,3-diamine] | 3.9 (≈ 13.8 µM) | 0.0038 (≈ 0.0134 µM) | 3.9 (≈ 13.8 µM) | 1.95 (≈ 6.88 µM) | 7.81 (≈ 27.6 µM) | 0.488 (≈ 1.72 µM) | 0.976 (≈ 3.44 µM)
Nc1nc(N)c2c(ccc3c2ccn3CC=Cc2ccccc2)n1 [Example 57] | 7.81 (≈ 24.8 µM) | 0.122 (≈ 0.387 µM) | 1.95 (≈ 6.18 µM) | 3.9 (≈ 12.4 µM) | 15.6 (≈ 49.5 µM) | 0.488 (≈ 1.55 µM) | 0.976 (≈ 3.09 µM)
Nc1nc(N)c2c(ccc3c2ccn3Cc2ccc(C(F)(F)F)cc2)n1 [Example 13] | 31.3 (≈ 87.6 µM) | 0.031 (≈ 0.0868 µM) | 1.95 (≈ 5.46 µM) | 3.9 (≈ 10.9 µM) | 15.6 (≈ 43.7 µM) | 0.976 (≈ 2.73 µM) | 0.976 (≈ 2.73 µM)
Nc1nc(N)c2c(ccc3c2ccn3Cc2cccs2)n1 [Example 59] | 0.244 (≈ 0.826 µM) | 0.0019 (≈ 0.00643 µM) | 0.244 (≈ 0.826 µM) | 0.061 (≈ 0.207 µM) | 0.244 (≈ 0.826 µM) | 0.061 (≈ 0.207 µM) | 0.061 (≈ 0.207 µM)
Nc1nc(N)c2c(ccc3c2cc(Cl)n3Cc2ccccc2)n1 [Example 104, 8-Chloro-7-(phenylmethyl)-7H-pyrrolo-[3,2-f]quinazoline-1,3-diamine] | 31.3 (≈ 96.7 µM) | 0.061 (≈ 0.188 µM) | 3.9 (≈ 12 µM) | 3.9 (≈ 12 µM) | 7.81 (≈ 24.1 µM) | 0.244 (≈ 0.754 µM) | 0.976 (≈ 3.01 µM)
CS(=O)(=O)c1ccc(-n2ccc3c4c(N)nc(N)nc4ccc32)cc1 [Example 74] | 15.6 (≈ 44.1 µM) | 0.0152 (≈ 0.043 µM) | 0.976 (≈ 2.76 µM) | 0.976 (≈ 2.76 µM) | 7.81 (≈ 22.1 µM) | 0.244 (≈ 0.69 µM) | 0.976 (≈ 2.76 µM)
Cc1cc(C)c(C)c(Cn2ccc3c4c(N)nc(N)nc4ccc32)c1C [Example 28] | > 250 | 0.244 (≈ 0.706 µM) | 15.6 (≈ 45.2 µM) | > 250 | > 250 | 3.9 (≈ 11.3 µM) | 15.6 (≈ 45.2 µM)
Cn1c2c(c3c4c(N)nc(N)nc4ccc31)CCCC2 [Example 109, 8,9,10,11-Tetrahydro-7-methyl-7H-pyrimido[4,5-c]carbazole-1,3-diamine] | > 250 | 3.9 (≈ 14.6 µM) | 62.5 (≈ 234 µM) | > 250 | 250 (≈ 935 µM) | 62.5 (≈ 234 µM) | 62.5 (≈ 234 µM)
Nc1nc(N)c2c(ccc3c2ccn3-c2ccccn2)n1 [Example 83] | 0.976 (≈ 3.53 µM) | 0.0076 (≈ 0.0275 µM) | 0.976 (≈ 3.53 µM) | 0.488 (≈ 1.77 µM) | 0.976 (≈ 3.53 µM) | 0.244 (≈ 0.883 µM) | 0.488 (≈ 1.77 µM)
Nc1nc(N)c2c(ccc3c2ccn3-c2ccnc3ccccc23)n1 [Example 87] | 1.95 (≈ 5.97 µM) | 0.031 (≈ 0.095 µM) | 0.031 (≈ 0.095 µM) | 0.488 (≈ 1.5 µM) | 0.976 (≈ 2.99 µM) | 0.031 (≈ 0.095 µM) | 0.0152 (≈ 0.0466 µM)
Nc1nc(N)c2c(ccc3c2ccn3-c2ccc([N+](=O)[O-])cc2[N+](=O)[O-])n1 [Example 78] | > 250 | 0.0019 (≈ 0.0052 µM) | 0.0076 (≈ 0.0208 µM) | 3.9 (≈ 10.7 µM) | > 250 | 0.031 (≈ 0.0849 µM) | 0.0076 (≈ 0.0208 µM)
Nc1nc(N)c2c(ccc3c2ccn3-c2nc3ccccc3s2)n1 [Example 97, 7-(2-Benzothiazolyl)-7H-pyrrolo-[3,2-f]quinazoline-1,3-diamine] | > 250 | 0.488 (≈ 1.47 µM) | 250 (≈ 752 µM) | > 250 | > 250 | 62.5 (≈ 188 µM) | 125 (≈ 376 µM)
